In PubChem BioAssay AID1963843 (Molecular Pharmacology Branch, DTP, NCI, 2024):

Tested on: 616215-338-R-J1-PDC complex spheroid viability
Assay: Anticancer human tumor 616215-338-R-J1-PDC patient-derived colon adenocarcinoma cell line growth inhibition [POLQ]
Conditions: for IC50: curve of first compound; for viability, T/C: stronger effect = lower value
Description: Multicellular complex tumor spheroid response to Polymerase (POL) inhibitors (novobiocin, ART-558, RP6685) in combination with a variety of drugs and investigational agents in selected tumor cell lines
The POL inhibitors (novobiocin, ART-558, and RP6685) were evaluated both individually and in combination with standard of care and investigational anticancer small molecules within a complex spheroid model of solid tumors. . Complex spheroids include a stromal component modeled by human endothelial cells (HUVEC) and fibroblasts modeled by human mesenchymal stem cells (MSCs). The concentration ranges selected for each drug and investigational agent were based upon clinically achievable concentrations if the clinical Cmax of the agent was known.
Compounds. The drugs and investigational agents: novobiocin (NSC847541), ART-558 (NSC835418), RP-6685 (NSC848927), peposertib (NSC802822), ceralasertib (NSC780249), elimusertib (NSC800525), camonsertib (NSC841442), AZD-1390 (NSC803789), olaparib (NSC753686), talazoparib (NSC767125), rucaparib (NSC756644), sotorasib (NSC818433), MRTX-1133 (NSC836407), SN-38 (NSC673596), topotecan (NSC609699), epotoside (NSC141540), doxorubicin (NSC123127), gemcitabine (NSC613327), 5-fluorouracil (NSC19893), paclitaxel (NSC125973), vemurafenib (NSC761431), MSA-2 (NSC828583), SN-011 (NSC837082), adavosertib (NSC754352), prexasertib (NSC758257), carboplatin (NSC241240) and oxaliplatin (NSC266046), were obtained from the National Cancer Institute (NCI) Developmental Therapeutics Program Chemical Repository (21). The FDA-approved anticancer drug set is available from the Developmental Therapeutics Program at https://dtp.cancer.gov/organization/dscb/obtaining/. […] The stock solutions were prepared in dimethyl sulfoxide (DMSO, Sigma-Aldrich, St. Louis, MO, cat. D2650), except for the platinum compounds which were prepared in saline (Quality Biological, Gaithersburg, MD, cat. 114-055-101), at 800-fold the tested concentration and stored at -70 degrees C prior to their use. All drugs and investigational agents were tested over a range starting from a high concentration at or near the clinical Cmax and decreasing in half-log increments. If the clinical Cmax for an agent had not been determined, the highest concentration tested was 10 microM, except for SN-38, which was tested at a high concentration of 1 microM.
Cell Culture. All cells were maintained in an incubator at 37 degrees C and 5% CO2 with 95% humidity. The PDC lines were cultured according to standard operating procedures established by the NCI PDMR (https://pdmr.cancer.gov). Table 3 of the manuscript, lists the cell lines along with the number of the three cell types plated to form the mct-spheroids and media for tumor cell growth. After thawing, all PDC lines, except 997537-175-T-J1-PDC and 415267-285-R-J2-PDC, were cultured in Matrigel-coated flasks prepared with a working solution of 1X Ham's F-12 nutrient mix, without supplementation (Thermo Fisher Scientific, cat. 11765054), 100 U/mL penicillin-streptomycin (Thermo Fisher Scientific, cat. 15140122), and 2.5% Matrigel (Corning Inc., Corning, NY, cat. 354248) for the first three passages. The two PDC lines 997537-175-T-J1-PDC and 415267-285-R-J2-PDC were cultured on uncoated flasks. The 857933-349-R-J2-PDC line was cultured in 6C/Colon 1B media containing advanced DMEM/F-12 (Thermo Fisher Scientific, cat. 12634028), 10 mM HEPES (Thermo Fisher Scientific, cat. 15630080), 1X GlutaMAX supplement (Thermo Fisher Scientific, cat. 35050061), 0.1 mg/mL primocin (InvivoGen, San Diego, CA, cat. ant-pm-2), 10% defined fetal bovine serum, heat inactivated (HyClone Laboratories Inc., Logan, UT, cat. SH30070.03HI), 50% L-WRN conditioned media (ATCC, cat. CRL-3276), 1.25 mM N-Acetyl-L-cysteine (Sigma-Aldrich, cat. A9165), 10 mM nicotinamide (Sigma-Aldrich, cat. N0636), 1X B-27 supplement (Thermo Fisher Scientific, cat. 17504044), 1X N-2 supplement (Thermo Fisher Scientific, cat. […]

[1] = second compound 0.0316 µM, first compound 0.0316 µM
[2] = second compound 0.0316 µM, first compound 0.1 µM
[3] = second compound 0.0316 µM, first compound 0.316 µM
[4] = second compound 0.0316 µM, first compound 1 µM
[5] = second compound 0.0316 µM, first compound 3.16 µM
[6] = second compound 0.0316 µM, first compound 10 µM
[7] = second compound 0.1 µM, first compound 0.0316 µM
[8] = second compound 0.1 µM, first compound 0.1 µM
[9] = second compound 0.1 µM, first compound 0.316 µM
[10] = second compound 0.1 µM, first compound 1 µM
[11] = second compound 0.1 µM, first compound 3.16 µM
[12] = second compound 0.1 µM, first compound 10 µM
[13] = second compound 0.316 µM, first compound 0.0316 µM
[14] = second compound 0.316 µM, first compound 0.1 µM
[15] = second compound 0.316 µM, first compound 0.316 µM
[16] = second compound 0.316 µM, first compound 1 µM
[17] = second compound 0.316 µM, first compound 3.16 µM
[18] = second compound 0.316 µM, first compound 10 µM
[19] = second compound 1 µM, first compound 0.0316 µM
[20] = second compound 1 µM, first compound 0.1 µM
[21] = second compound 1 µM, first compound 0.316 µM
[22] = second compound 1 µM, first compound 1 µM
[23] = second compound 1 µM, first compound 3.16 µM
[24] = second compound 1 µM, first compound 10 µM
[25] = second compound 3.16 µM, first compound 0.0316 µM
[26] = second compound 3.16 µM, first compound 0.1 µM
[27] = second compound 3.16 µM, first compound 0.316 µM
[28] = second compound 3.16 µM, first compound 1 µM
[29] = second compound 3.16 µM, first compound 3.16 µM
[30] = second compound 3.16 µM, first compound 10 µM
[31] = second compound 10 µM, first compound 0.0316 µM
[32] = second compound 10 µM, first compound 0.1 µM
[33] = second compound 10 µM, first compound 0.316 µM
[34] = second compound 10 µM, first compound 1 µM
[35] = second compound 10 µM, first compound 3.16 µM
[36] = second compound 10 µM, first compound 10 µM
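Further: spheroids exposed to compounds for one week before readout.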
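Wherever viability, T/C is given: percent viability relative to DMSO vehicle wells taken as 100%.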

SMILES: CCc1cc2c(N3CCc4c(cc(Cn5ccnc5)cc4-c4cn(C)nc4C(F)(F)F)C3=O)cc(C)nc2c(OC)n1 + Cc1cccc(N(C)C(=O)C2C(O)CCN2c2nc(C)cc(C(F)(F)F)c2C#N)c1
- IC50 (second compound 0.0316 µM): 2.35 µM
- IC50 (second compound 0.1 µM): 2.24 µM
- IC50 (second compound 0.316 µM): 4.28 µM
- IC50 (second compound 1 µM): 2.82 µM
- IC50 (second compound 3.16 µM): > 10 µM
- IC50 (second compound 10 µM): 2.76 µM
- viability, T/C [1]: 107%
- viability, T/C [2]: 120%
- viability, T/C [3]: 83%
- viability, T/C [4]: 60.6%
- viability, T/C [5]: 46.4%
- viability, T/C [6]: 45.7%
- viability, T/C [7]: 108%
- viability, T/C [8]: 104%
- viability, T/C [9]: 74.8%
- viability, T/C [10]: 57.4%
- viability, T/C [11]: 49.6%
- viability, T/C [12]: 43.2%
- viability, T/C [13]: 99.8%
- viability, T/C [14]: 103%
- viability, T/C [15]: 81%
- viability, T/C [16]: 70.8%
- viability, T/C [17]: 45.7%
- viability, T/C [18]: 49.1%
- viability, T/C [19]: 105%
- viability, T/C [20]: 102%
- viability, T/C [21]: 85%
- viability, T/C [22]: 66.1%
- viability, T/C [23]: 48%
- viability, T/C [24]: 40%
- viability, T/C [25]: 106%
- viability, T/C [26]: 102%
- viability, T/C [27]: 90.2%
- viability, T/C [28]: 58%
- viability, T/C [29]: 54.6%
- viability, T/C [30]: 50.8%
- viability, T/C [31]: 106%
- viability, T/C [32]: 92.3%
- viability, T/C [33]: 81.7%
- viability, T/C [34]: 61.1%
- viability, T/C [35]: 48%
- viability, T/C [36]: 40.4%

SMILES: O=C(Nc1ccc(O)c(NS(=O)(=O)c2ccc(F)cc2)c1)c1ccc(-c2ccccc2)cc1 + Cc1cccc(N(C)C(=O)C2C(O)CCN2c2nc(C)cc(C(F)(F)F)c2C#N)c1
- IC50 (second compound 0.0316 µM): > 10 µM
- IC50 (second compound 0.1 µM): > 10 µM
- IC50 (second compound 0.316 µM): > 10 µM
- IC50 (second compound 1 µM): 6.74 µM
- IC50 (second compound 3.16 µM): 8.18 µM
- IC50 (second compound 10 µM): 7.24 µM
- viability, T/C [1]: 109%
- viability, T/C [2]: 105%
- viability, T/C [3]: 103%
- viability, T/C [4]: 93.7%
- viability, T/C [5]: 101%
- viability, T/C [6]: 72.5%
- viability, T/C [7]: 109%
- viability, T/C [8]: 95.7%
- viability, T/C [9]: 108%
- viability, T/C [10]: 114%
- viability, T/C [11]: 96.5%
- viability, T/C [12]: 76.1%
- viability, T/C [13]: 95.2%
- viability, T/C [14]: 117%
- viability, T/C [15]: 92.1%
- viability, T/C [16]: 108%
- viability, T/C [17]: 103%
- viability, T/C [18]: 73%
- viability, T/C [19]: 98.3%
- viability, T/C [20]: 99.8%
- viability, T/C [21]: 107%
- viability, T/C [22]: 96.6%
- viability, T/C [23]: 82%
- viability, T/C [24]: 33.4%
- viability, T/C [25]: 117%
- viability, T/C [26]: 106%
- viability, T/C [27]: 95.3%
- viability, T/C [28]: 88.1%
- viability, T/C [29]: 95.4%
- viability, T/C [30]: 40.5%
- viability, T/C [31]: 108%
- viability, T/C [32]: 102%
- viability, T/C [33]: 91.8%
- viability, T/C [34]: 93.1%
- viability, T/C [35]: 87.2%
- viability, T/C [36]: 35.8%
